Experimental data taken from patent US8183201B2 (priority 2006, dated 2012).
Like-named read-outs stand apart in the source and are kept apart here.

Assays:
integrin α5β1 = target: T1, integrin α5β1 (Homo sapiens, UniProt P05556+P08648); format: cell-based
T1 construct: Human erythroleukemia K562 cells were purchased from ATCC; host or cells: K562

osteoarthritic rats = conditions: rat, in vivo
osteoarthritic mice = conditions: mouse, in vivo
[1] = test system: VEGF-induced angiogenesis; design: species or system C57BL/6 mice; conditions: mouse, in vivo
[2] = test system: ovariectomized (OVX) mice; design: species or system ICR mice; conditions: mouse, in vivo
[3] = test system: human breast cancer MDA-MB-231 cells; conditions: mouse, in vivo
TGF-β = format: binding
Insulin = target: T2, Insulin (Rattus norvegicus, UniProt P15127); format: binding
T2 construct: MDS Pharma services, Taipei, Taiwan (contract assay)

Leptin = target: T3, Leptin (Homo sapiens, UniProt P48357); format: binding
T3 construct: MDS Pharma services, Taipei, Taiwan (contract assay)
T3 sequence (P48357 22-1165): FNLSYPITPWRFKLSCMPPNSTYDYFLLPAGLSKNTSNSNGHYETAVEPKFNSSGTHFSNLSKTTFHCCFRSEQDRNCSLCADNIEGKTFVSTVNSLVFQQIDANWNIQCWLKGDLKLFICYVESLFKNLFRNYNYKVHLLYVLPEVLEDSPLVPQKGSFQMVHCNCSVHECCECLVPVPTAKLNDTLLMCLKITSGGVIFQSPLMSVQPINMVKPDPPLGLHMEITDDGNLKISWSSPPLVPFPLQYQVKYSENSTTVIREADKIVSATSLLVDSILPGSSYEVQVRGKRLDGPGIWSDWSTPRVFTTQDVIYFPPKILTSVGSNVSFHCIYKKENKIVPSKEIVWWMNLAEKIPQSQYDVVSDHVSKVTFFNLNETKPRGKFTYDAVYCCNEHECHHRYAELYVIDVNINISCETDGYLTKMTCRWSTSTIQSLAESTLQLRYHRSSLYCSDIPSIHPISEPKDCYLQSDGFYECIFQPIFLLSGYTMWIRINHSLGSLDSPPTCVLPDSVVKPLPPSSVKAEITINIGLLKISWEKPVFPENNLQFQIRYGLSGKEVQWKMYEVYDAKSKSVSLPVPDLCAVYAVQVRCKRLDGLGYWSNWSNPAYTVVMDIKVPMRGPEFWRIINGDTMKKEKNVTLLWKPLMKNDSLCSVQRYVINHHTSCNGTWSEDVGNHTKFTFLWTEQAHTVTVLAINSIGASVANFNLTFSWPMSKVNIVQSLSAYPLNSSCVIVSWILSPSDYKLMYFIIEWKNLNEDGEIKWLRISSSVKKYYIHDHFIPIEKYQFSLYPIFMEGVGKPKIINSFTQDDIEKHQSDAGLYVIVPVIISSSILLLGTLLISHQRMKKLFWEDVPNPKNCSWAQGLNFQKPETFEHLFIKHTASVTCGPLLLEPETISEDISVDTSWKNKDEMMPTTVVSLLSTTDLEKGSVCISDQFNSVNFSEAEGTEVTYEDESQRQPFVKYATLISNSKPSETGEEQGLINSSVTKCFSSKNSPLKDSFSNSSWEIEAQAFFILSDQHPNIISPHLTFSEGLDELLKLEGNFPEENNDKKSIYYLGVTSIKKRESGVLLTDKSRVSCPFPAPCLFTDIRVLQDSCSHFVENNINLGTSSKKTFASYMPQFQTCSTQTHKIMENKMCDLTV

[4] = test system: osteoclast precursors (bone marrow hematopoietic cells); format: cell-based, SD rats; conditions: read-out: IC50 Osteoclastogenesis
Endothelin ETA = target: T4, Endothelin ETA (Homo sapiens, UniProt P25101); format: binding
T4 construct: MDS Pharma services, Taipei, Taiwan (contract assay)
T4 sequence (P25101 21-427): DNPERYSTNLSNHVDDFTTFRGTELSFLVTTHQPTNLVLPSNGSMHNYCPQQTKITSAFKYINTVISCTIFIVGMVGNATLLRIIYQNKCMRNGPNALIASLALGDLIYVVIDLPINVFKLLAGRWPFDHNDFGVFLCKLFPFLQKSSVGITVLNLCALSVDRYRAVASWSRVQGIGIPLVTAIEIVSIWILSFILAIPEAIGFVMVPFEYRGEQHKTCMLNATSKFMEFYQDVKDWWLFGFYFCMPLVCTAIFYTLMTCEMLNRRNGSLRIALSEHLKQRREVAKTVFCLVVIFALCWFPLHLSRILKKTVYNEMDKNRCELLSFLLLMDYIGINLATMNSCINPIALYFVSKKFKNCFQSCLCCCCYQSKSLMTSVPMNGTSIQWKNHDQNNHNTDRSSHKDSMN

Sodium Channel (Site 2) = format: binding
VEGF = format: binding
[5] = test system: hypoxic-induced angiogenesis; design: species or system mice; conditions: mouse, in vivo
[6] = mouse, in vivo, iv, 30 mg/kg
[7] = test system: ovariectomized (OVX) rats; conditions: rat, in vivo, po, 1.5 mg/kg
integrin αIIbβ3 = target: T5, integrin αIIbβ3 (Homo sapiens, UniProt P05106+P08514); format: cell-based
T5 construct: host or cells: CHO (CHO-αIIbβ3)

osteoarthritis rats = test system: osteoarthritis rats; design: species or system Sprague-Dawley rats; conditions: rat, in vivo

T2 sequence (P15127 27-1383): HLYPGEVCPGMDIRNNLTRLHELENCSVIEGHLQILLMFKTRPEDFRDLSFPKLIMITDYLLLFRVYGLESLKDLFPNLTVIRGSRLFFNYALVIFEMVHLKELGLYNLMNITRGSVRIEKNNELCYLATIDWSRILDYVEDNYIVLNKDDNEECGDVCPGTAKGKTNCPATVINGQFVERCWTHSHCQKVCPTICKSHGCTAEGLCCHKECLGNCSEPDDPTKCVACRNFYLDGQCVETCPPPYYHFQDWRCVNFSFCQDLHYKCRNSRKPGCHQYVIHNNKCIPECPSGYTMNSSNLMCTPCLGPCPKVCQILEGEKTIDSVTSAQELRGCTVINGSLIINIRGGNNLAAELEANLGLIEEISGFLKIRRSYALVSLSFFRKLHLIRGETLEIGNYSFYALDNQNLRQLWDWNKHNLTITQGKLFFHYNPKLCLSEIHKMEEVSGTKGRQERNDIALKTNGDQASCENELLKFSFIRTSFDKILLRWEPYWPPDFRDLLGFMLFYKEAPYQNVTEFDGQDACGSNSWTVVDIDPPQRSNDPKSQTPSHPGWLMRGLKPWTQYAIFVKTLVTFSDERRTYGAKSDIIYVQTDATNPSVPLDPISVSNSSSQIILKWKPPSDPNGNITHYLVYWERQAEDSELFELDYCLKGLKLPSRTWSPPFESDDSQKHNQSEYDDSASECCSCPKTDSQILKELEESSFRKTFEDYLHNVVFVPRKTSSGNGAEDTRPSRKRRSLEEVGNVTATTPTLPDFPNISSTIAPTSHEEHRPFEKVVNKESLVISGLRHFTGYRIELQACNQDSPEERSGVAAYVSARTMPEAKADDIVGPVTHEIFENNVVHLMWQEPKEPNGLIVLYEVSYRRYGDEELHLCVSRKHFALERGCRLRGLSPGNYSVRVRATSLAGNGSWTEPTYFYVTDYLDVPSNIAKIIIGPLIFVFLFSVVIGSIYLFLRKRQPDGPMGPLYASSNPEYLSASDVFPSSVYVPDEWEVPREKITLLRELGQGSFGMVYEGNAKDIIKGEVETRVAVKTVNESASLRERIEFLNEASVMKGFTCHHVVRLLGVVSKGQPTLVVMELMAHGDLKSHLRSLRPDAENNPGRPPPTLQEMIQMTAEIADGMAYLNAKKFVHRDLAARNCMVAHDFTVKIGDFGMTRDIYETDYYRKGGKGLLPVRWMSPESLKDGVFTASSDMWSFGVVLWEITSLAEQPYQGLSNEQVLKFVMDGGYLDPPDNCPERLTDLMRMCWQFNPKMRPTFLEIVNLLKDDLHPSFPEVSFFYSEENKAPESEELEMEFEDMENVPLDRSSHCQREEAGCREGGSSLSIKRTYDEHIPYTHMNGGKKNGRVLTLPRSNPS
T1 sequence (P08648 42-894 limits assumed): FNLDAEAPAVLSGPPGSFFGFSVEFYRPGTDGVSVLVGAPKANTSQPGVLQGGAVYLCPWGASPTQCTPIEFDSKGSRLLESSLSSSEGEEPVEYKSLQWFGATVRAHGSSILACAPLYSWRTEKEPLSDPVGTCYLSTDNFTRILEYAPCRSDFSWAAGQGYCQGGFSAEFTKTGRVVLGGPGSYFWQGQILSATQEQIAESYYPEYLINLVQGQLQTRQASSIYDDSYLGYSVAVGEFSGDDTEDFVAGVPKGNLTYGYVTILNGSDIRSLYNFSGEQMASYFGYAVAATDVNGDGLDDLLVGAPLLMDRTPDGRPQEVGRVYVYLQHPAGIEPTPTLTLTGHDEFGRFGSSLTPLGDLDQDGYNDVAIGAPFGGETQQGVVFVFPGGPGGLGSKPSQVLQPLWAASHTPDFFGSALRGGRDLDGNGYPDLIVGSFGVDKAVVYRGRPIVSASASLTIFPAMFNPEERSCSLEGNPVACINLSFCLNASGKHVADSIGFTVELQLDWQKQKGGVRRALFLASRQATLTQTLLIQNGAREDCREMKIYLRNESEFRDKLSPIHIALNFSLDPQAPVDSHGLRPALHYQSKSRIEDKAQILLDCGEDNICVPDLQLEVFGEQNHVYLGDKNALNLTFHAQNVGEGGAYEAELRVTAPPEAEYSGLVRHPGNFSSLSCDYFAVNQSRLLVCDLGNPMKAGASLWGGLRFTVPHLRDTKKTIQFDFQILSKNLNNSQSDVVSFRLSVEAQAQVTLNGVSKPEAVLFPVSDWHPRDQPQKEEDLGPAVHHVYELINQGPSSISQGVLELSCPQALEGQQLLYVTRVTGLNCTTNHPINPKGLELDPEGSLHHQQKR
T1 sequence (P08648 895-1049 partner limits assumed): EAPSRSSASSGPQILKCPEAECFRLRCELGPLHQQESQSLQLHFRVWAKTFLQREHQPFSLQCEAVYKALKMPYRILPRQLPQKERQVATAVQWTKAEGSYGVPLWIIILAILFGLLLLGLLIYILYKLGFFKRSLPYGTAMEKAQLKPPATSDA
T1 sequence (P05556 21-798): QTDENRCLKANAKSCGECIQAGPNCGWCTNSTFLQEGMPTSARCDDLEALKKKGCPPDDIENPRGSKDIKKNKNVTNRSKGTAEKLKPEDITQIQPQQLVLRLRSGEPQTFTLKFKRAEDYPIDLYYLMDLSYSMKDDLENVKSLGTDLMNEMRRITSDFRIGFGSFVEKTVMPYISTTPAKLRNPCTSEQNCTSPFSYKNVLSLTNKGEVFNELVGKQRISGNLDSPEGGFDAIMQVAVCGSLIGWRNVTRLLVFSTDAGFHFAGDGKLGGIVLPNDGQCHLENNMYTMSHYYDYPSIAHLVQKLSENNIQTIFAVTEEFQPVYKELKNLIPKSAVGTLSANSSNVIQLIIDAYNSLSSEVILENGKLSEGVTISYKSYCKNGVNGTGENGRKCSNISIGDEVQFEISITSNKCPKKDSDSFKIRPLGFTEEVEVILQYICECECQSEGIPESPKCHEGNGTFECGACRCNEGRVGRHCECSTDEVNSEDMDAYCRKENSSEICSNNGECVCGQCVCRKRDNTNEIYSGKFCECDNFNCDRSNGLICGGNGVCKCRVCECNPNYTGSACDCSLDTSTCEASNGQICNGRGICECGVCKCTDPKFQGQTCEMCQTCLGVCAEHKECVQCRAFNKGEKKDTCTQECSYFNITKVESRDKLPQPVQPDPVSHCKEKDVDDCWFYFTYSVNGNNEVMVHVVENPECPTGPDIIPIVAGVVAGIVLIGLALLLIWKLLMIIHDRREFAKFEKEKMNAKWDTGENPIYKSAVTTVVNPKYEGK

## RD: rhodostomin variant having a RGD motif variant ^48PRLDMP^53, SEQ ID NO: 36
Integrin α5β1
  increase of IC50 in inhibition of integrin α5β1 as compared to Rho: > 10 fold
Osteoarthritic rats
  osteoarthritis-induced elevation of serum cytokines (c-reactive protein, IL-1β, IL-6): markedly inhibited the osteoarthritis-induced elevation of cytokines
Osteoarthritic mice
  osteoarthritis-induced elevation of serum cytokines (c-reactive protein, IL-1, IL-6): markedly inhibited the osteoarthritis-induced elevation of cytokines
[1]
  hemoglobin content in MATRIGEL plugs: reduced hemoglobin content
  inhibition of angiogenesis in MATRIGEL plug: effective in inhibiting angiogenesis
[2]
  BMC: 0.582 ± 0.009 g
  BMD: 0.085 ± 0.002 g/cm^2
  C-terminal telopeptide of COL(1)α1 chain: 533 ± 27.4 ng/mL
[2]; po, 1.5 mg/kg
  BMC: 0.627 ± 0.008 g
  BMD: 0.091 ± 0.001 g/cm^2
  C-terminal telopeptide of COL(1)α1 chain: 391 ± 8.3 ng/mL
[3]
  MDA-MB-231-induced tumor growth in bone: inhibited MDA-MB-231-induced increase in tumor growth in bone
  blood counts of RBC, WBC and platelet: did not affect the blood counts of RBC, WBC and platelet
  tumor-induced hypercalcemia: prevented
  tumor-induced increase in osteoclast activity: prevented the tumor-induced increase in osteoclast activity
TGF-β
  Inhibition, TGF-β: 14%
Insulin
  Inhibition, Insulin: −6%
Leptin
  Inhibition, Leptin: 1%
[4]
  IC50: 3.32 nM
Endothelin ETA
  Inhibition, Endothelin ETA: 26%
Sodium Channel (Site 2)
  Inhibition, Sodium Channel (Site 2): 2%
VEGF
  Inhibition, VEGF: −14%
[5]
  reduction of angiogenesis (blood vessel profiles in the inner retina) compared to vehicle ROP group: about 46%
[6]
  survival of mice: did not affect the survival of mice
[7]
  BMC, Femur: 0.441 ± 0.018 g
  BMC, Tibia: 0.299 ± 0.011 g
  BMD, Femur: 0.135 ± 0.004 g/cm^2
  BMD, Tibia: 0.113 ± 0.009 g/cm^2
  Bone length, Femur: 3.71 ± 0.06 mm
  Bone length, Tibia: 4.01 ± 0.03 mm
  Bone volume: 16.3 ± 2.7 %
  Wet weight, Femur: 985.3 ± 9.8 mg
  Wet weight, Tibia: 749 ± 20.1 mg
  ovariectomy-induced increase in osteoclast activity (serum C-terminal telopeptide of type-I collagen): reversed the ovariectomy-induced increase in osteoclast activity
Integrin αIIbβ3
  increase of IC50 in inhibition of integrin αIIbβ3 as compared to Rho: more than 104 fold
Osteoarthritis rats
  chondrocyte layer destruction in knee joint: inhibited the chondrocyte layer destruction
